What was measured:
U-251 = assay: Growth inhibition of human U251 cells assessed as cell growth at 10 uM incubated for 48 hrs by sulforhodamine B assay relative to control; format: functional; conditions: U-251, 48 h, read-out: Activity
OVCAR-3 = assay: Growth inhibition of human OVCAR3 cells assessed as cell growth at 10 uM incubated for 48 hrs by sulforhodamine B assay relative to control; format: functional; conditions: OVCAR-3, 48 h, read-out: Activity
MDA-MB-435 = assay: Growth inhibition of human MDA-MB-435 cells assessed as cell growth at 10 uM incubated for 48 hrs by sulforhodamine B assay relative to control; format: functional; conditions: MDA-MB-435, 48 h, read-out: Activity
NCI/ADR-RES = assay: Growth inhibition of human NCI/ADR-RES cells assessed as cell growth at 10 uM incubated for 48 hrs by sulforhodamine B assay relative to control; format: functional; conditions: read-out: Activity
LOX IMVI = assay: Growth inhibition of human LOXIMVI cells assessed as cell growth at 10 uM incubated for 48 hrs by sulforhodamine B assay relative to control; format: functional; conditions: read-out: Activity
SR = assay: Growth inhibition of human SR cells assessed as cell growth at 10 uM incubated for 48 hrs by sulforhodamine B assay relative to control; format: functional; conditions: read-out: Activity
BT-549 = assay: Growth inhibition of human BT549 cells assessed as cell growth at 10 uM incubated for 48 hrs by sulforhodamine B assay relative to control; format: functional; conditions: BT-549, 48 h, read-out: Activity
SNB-19 = assay: Growth inhibition of human SNB19 cells assessed as cell growth at 10 uM incubated for 48 hrs by sulforhodamine B assay relative to control; format: functional; conditions: SNB-19, 48 h, read-out: Activity
Hs-578T = assay: Growth inhibition of human Hs 578T cells assessed as cell growth at 10 uM incubated for 48 hrs by sulforhodamine B assay relative to control; format: functional; conditions: read-out: Activity
SK-MEL-5 = assay: Growth inhibition of human SK-MEL-5 cells assessed as cell growth at 10 uM incubated for 48 hrs by sulforhodamine B assay relative to control; format: functional; conditions: SK-MEL-5, 48 h, read-out: Activity
DU-145 = assay: Growth inhibition of human DU145 cells assessed as cell growth at 10 uM incubated for 48 hrs by sulforhodamine B assay relative to control; format: functional; conditions: DU-145, 48 h, read-out: Activity
HL-60(TB) = assay: Growth inhibition of human HL-60(TB) cells assessed as cell growth at 10 uM incubated for 48 hrs by sulforhodamine B assay relative to control; format: functional; conditions: HL-60, 48 h, read-out: Activity
K562 = assay: Growth inhibition of human K562 cells assessed as cell growth at 10 uM incubated for 48 hrs by sulforhodamine B assay relative to control; format: functional; conditions: K562, 48 h, read-out: Activity
786-0 = assay: Growth inhibition of human 786-0 cells assessed as cell growth at 10 uM incubated for 48 hrs by sulforhodamine B assay relative to control; format: functional; conditions: 786-0, 48 h, read-out: Activity
OVCAR-5 = assay: Growth inhibition of human OVCAR5 cells assessed as cell growth at 10 uM incubated for 48 hrs by sulforhodamine B assay relative to control; format: functional; conditions: OVCAR-5, 48 h, read-out: Activity
A549 = assay: Growth inhibition of human A549/ATCC cells assessed as cell growth at 10 uM incubated for 48 hrs by sulforhodamine B assay relative to control; format: functional; conditions: A549, 48 h, read-out: Activity
MOLT-4 = assay: Growth inhibition of human MOLT4 cells assessed as cell growth at 10 uM incubated for 48 hrs by sulforhodamine B assay relative to control; format: functional; conditions: MOLT-4, 48 h, read-out: Activity
OVCAR-8 = assay: Growth inhibition of human OVCAR8 cells assessed as cell growth at 10 uM incubated for 48 hrs by sulforhodamine B assay relative to control; format: functional; conditions: OVCAR-8, 48 h, read-out: Activity
UACC-62 = assay: Growth inhibition of human UACC62 cells assessed as cell growth at 10 uM incubated for 48 hrs by sulforhodamine B assay relative to control; format: functional; conditions: UACC-62, 48 h, read-out: Activity
PC-3 = assay: Growth inhibition of human PC3 cells assessed as cell growth at 10 uM incubated for 48 hrs by sulforhodamine B assay relative to control; format: functional; conditions: PC-3, 48 h, read-out: Activity
OVCAR-4 = assay: Growth inhibition of human OVCAR4 cells assessed as cell growth at 10 uM incubated for 48 hrs by sulforhodamine B assay relative to control; format: functional; conditions: OVCAR-4, 48 h, read-out: Activity
COLO 205 = assay: Growth inhibition of human COLO205 cells assessed as cell growth at 10 uM incubated for 48 hrs by sulforhodamine B assay relative to control; format: functional; conditions: COLO 205, 48 h, read-out: Activity
NCI-H522 = assay: Growth inhibition of human NCI-H522 cells assessed as cell growth at 10 uM incubated for 48 hrs by sulforhodamine B assay relative to control; format: functional; conditions: NCI-H522, 48 h, read-out: Activity
[1] = biological target: Epidermal growth factor receptor (Homo sapiens, UniProt P00533); assay: Inhibition of recombinant human C-terminal His/N-terminal GST-tagged EGFR (668 to 1210 residues) expressed in baculovirus infected Sf9 cells at 10 uM using biotin-labeled poly[Glu:Tyr] (4:1) as substrate after 30 mins by Kinase-Glo plus luminescence assay relative to control
EKVX = assay: Growth inhibition of human EKVX cells assessed as cell growth at 10 uM incubated for 48 hrs by sulforhodamine B assay relative to control; format: functional; conditions: read-out: Activity
KM12 = assay: Growth inhibition of human KM12 cells assessed as cell growth at 10 uM incubated for 48 hrs by sulforhodamine B assay relative to control; format: functional; conditions: KM12, 48 h, read-out: Activity
NCI-H460 = assay: Growth inhibition of human NCI-H460 cells assessed as cell growth at 10 uM incubated for 48 hrs by sulforhodamine B assay relative to control; format: functional; conditions: NCI-H460, 48 h, read-out: Activity
SK-OV-3 = assay: Growth inhibition of human SKOV3 cells assessed as cell growth at 10 uM incubated for 48 hrs by sulforhodamine B assay relative to control; format: functional; conditions: SK-OV-3, 48 h, read-out: Activity
T47D = assay: Growth inhibition of human T47D cells assessed as cell growth at 10 uM incubated for 48 hrs by sulforhodamine B assay relative to control; format: functional; conditions: read-out: Activity
ACHN = assay: Growth inhibition of human ACHN cells assessed as cell growth at 10 uM incubated for 48 hrs by sulforhodamine B assay relative to control; format: functional; conditions: read-out: Activity
SN12C = assay: Growth inhibition of human SN12C cells assessed as cell growth at 10 uM incubated for 48 hrs by sulforhodamine B assay relative to control; format: functional; conditions: read-out: Activity
NCI-H23 = assay: Growth inhibition of human NCI-H23 cells assessed as cell growth at 10 uM incubated for 48 hrs by sulforhodamine B assay relative to control; format: functional; conditions: NCI-H23, 48 h, read-out: Activity
HOP-62 = assay: Growth inhibition of human HOP62 cells assessed as cell growth at 10 uM incubated for 48 hrs by sulforhodamine B assay relative to control; format: functional; conditions: HOP-62, 48 h, read-out: Activity

Sequence of Epidermal growth factor receptor (P00533 whole entry, the tested form may be a part): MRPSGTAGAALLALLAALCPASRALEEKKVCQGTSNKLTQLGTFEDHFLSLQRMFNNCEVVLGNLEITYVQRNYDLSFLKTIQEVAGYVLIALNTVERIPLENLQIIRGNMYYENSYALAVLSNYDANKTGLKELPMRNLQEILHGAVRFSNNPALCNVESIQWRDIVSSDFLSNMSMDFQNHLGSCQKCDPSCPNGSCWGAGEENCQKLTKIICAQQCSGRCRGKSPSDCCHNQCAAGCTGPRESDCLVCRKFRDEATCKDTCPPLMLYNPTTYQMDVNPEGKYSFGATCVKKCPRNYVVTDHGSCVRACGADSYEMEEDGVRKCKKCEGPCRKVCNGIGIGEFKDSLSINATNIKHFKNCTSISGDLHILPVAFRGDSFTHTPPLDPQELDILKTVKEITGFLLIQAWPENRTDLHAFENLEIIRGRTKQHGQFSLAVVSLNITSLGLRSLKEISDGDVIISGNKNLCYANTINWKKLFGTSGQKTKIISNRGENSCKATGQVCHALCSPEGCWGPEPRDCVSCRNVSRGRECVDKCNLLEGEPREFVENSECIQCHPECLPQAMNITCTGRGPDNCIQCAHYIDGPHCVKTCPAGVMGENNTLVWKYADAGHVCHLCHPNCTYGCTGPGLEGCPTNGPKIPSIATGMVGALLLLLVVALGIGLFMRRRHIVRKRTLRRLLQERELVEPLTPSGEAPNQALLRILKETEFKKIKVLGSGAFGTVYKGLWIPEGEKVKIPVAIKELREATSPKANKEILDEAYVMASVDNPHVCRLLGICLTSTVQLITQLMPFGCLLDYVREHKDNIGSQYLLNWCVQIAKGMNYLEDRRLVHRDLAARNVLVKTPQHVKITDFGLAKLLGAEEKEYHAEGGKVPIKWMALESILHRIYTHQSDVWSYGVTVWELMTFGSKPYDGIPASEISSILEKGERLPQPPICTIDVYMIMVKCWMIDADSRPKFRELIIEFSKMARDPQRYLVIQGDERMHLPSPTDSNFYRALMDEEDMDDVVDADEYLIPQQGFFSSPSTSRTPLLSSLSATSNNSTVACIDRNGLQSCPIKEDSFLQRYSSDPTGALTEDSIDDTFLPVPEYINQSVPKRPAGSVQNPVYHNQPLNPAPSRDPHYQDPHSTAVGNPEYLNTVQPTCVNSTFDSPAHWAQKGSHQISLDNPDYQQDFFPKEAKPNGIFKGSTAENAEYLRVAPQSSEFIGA

Row | Structure (SMILES) | growth at 10 µM (U-251) [%] | growth at 10 µM (OVCAR-3) [%] | growth at 10 µM (MDA-MB-435) [%] | growth at 10 µM (NCI/ADR-RES) [%] | growth at 10 µM (LOX IMVI) [%] | growth at 10 µM (BT-549) [%] | growth at 10 µM (SNB-19) [%] | growth at 10 µM (Hs-578T) [%] | growth at 10 µM (SK-MEL-5) [%] | growth at 10 µM (DU-145) [%] | growth at 10 µM (786-0) [%] | growth at 10 µM (OVCAR-5) [%] | growth at 10 µM (A549) [%] | growth at 10 µM (OVCAR-8) [%] | growth at 10 µM (UACC-62) [%] | growth at 10 µM (PC-3) [%] | growth at 10 µM (OVCAR-4) [%] | growth at 10 µM (COLO 205) [%] | growth at 10 µM (NCI-H522) [%] | inhibition [1] [%] | also measured
1 | CCOC(=O)c1c(C)oc2ncnc(Nc3ccc(OCc4cccc(F)c4)cc3)c12 | 96.1 | 104 | 103 | 86.2 | 85.3 | 100 | 99.5 | 87.7 | 93.4 | 94.9 | 86.1 | 94 | 76.4 | 97.6 | 80.3 | 75 | 102 | 84.2 | 85 | 34 | growth at 10 µM (SR): 104%; growth at 10 µM (HL-60(TB)): 109%; growth at 10 µM (K562): 107%; growth at 10 µM (MOLT-4): 107%; growth at 10 µM (EKVX): 94.4%; growth at 10 µM (KM12): 92.9%; growth at 10 µM (NCI-H460): 68.4%; growth at 10 µM (SK-OV-3): 104%; growth at 10 µM (T47D): 91%; growth at 10 µM (ACHN): 62.1%; growth at 10 µM (SN12C): 90.3%; growth at 10 µM (NCI-H23): 91.8%; growth at 10 µM (HOP-62): 87.8%
2 | CCOC(=O)c1c(C)oc2ncnc(Nc3ccc(F)c(Cl)c3)c12 | 91.8 | 116 | 114 | 107 | 103 | 101 | 100 | 97 | 94.5 | 103 | 104 | 112 | 86.9 | 100 | 94.9 | 85.6 | 118 | 110 | 74.6 | 10 | growth at 10 µM (SR): 96.8%; growth at 10 µM (HL-60(TB)): 101%; growth at 10 µM (K562): 93.8%; growth at 10 µM (MOLT-4): 99.2%; growth at 10 µM (EKVX): 108%; growth at 10 µM (KM12): 104%; growth at 10 µM (NCI-H460): 106%; growth at 10 µM (SK-OV-3): 90.7%; growth at 10 µM (T47D): 83.8%; growth at 10 µM (ACHN): 112%; growth at 10 µM (SN12C): 92.2%; growth at 10 µM (NCI-H23): 88%; growth at 10 µM (HOP-62): 101%
3 | CCOC(=O)c1c(C)oc2ncnc(Nc3cccc(F)c3)c12 | 106 | 108 | 101 | 96.1 | 105 | 94.2 | 93.7 | 99 | 99 | 99 | 95.7 | 102 | 93 | 105 | 84 | 94.7 | 108 | 104 | 94.3 | 2 | growth at 10 µM (SR): 78.6%; growth at 10 µM (HL-60(TB)): 76.4%; growth at 10 µM (K562): 101%; growth at 10 µM (MOLT-4): 62.5%; growth at 10 µM (EKVX): 101%; growth at 10 µM (KM12): 100%; growth at 10 µM (NCI-H460): 101%; growth at 10 µM (SK-OV-3): 101%; growth at 10 µM (T47D): 92.7%; growth at 10 µM (ACHN): 109%; growth at 10 µM (SN12C): 89.1%; growth at 10 µM (NCI-H23): 97.8%; growth at 10 µM (HOP-62): 101%
4 | CCOC(=O)c1c(C)oc2ncnc(Nc3ccc(F)cc3)c12 | 98 | 104 | 101 | 101 | 99.5 | 98.5 | 91.4 | 96.1 | 102 | 101 | 93.1 | 91.4 | 99.4 | 106 | 88.6 | 111 | 99.1 | 102 | 92.9 | 6 | growth at 10 µM (KM12): 97.6%; growth at 10 µM (NCI-H460): 100%; growth at 10 µM (SK-OV-3): 104%; growth at 10 µM (T47D): 99.6%; growth at 10 µM (ACHN): 99%; growth at 10 µM (SN12C): 92.9%; growth at 10 µM (NCI-H23): 91.9%; growth at 10 µM (HOP-62): 101%
5 | CCOC(=O)c1c(C)oc2ncnc(Nc3ccc(OCc4ccc(Cl)cc4)cc3)c12 | 107 | 117 | 104 | 101 | 95.8 | 96.1 | 111 | 111 | 95.8 | 106 | 98 | 100 | 86.5 | 107 | 87.7 | 100 | 104 | 111 | 84 | 6 | growth at 10 µM (SR): 92.1%; growth at 10 µM (HL-60(TB)): 91.7%; growth at 10 µM (K562): 83.8%; growth at 10 µM (MOLT-4): 109%; growth at 10 µM (EKVX): 102%; growth at 10 µM (KM12): 101%; growth at 10 µM (NCI-H460): 107%; growth at 10 µM (SK-OV-3): 88%; growth at 10 µM (T47D): 84%; growth at 10 µM (ACHN): 101%; growth at 10 µM (SN12C): 97.8%; growth at 10 µM (NCI-H23): 95.4%; growth at 10 µM (HOP-62): 97.7%
6 | Cc1oc2ncnc(Nc3cccc(F)c3)c2c1C(=O)NCCO | 104 | 107 | 108 | 114 | 100 | 96.3 | 104 | 103 | 102 | 105 | 93 | 100 | 91 | 105 | 92.2 | 111 | 108 | 111 | 88.4 | 20 | growth at 10 µM (KM12): 97.9%; growth at 10 µM (NCI-H460): 105%; growth at 10 µM (SK-OV-3): 89.2%; growth at 10 µM (T47D): 95.4%; growth at 10 µM (ACHN): 103%; growth at 10 µM (SN12C): 98.7%; growth at 10 µM (NCI-H23): 99.6%; growth at 10 µM (HOP-62): 97.4%
